In ChEMBL document CHEMBL1121424, “Orally active cephalosporins and penicillins” (J Med Chem, 1980) one finds MIC data, which are given here for eight molecules.

In brackets after ≈: the same amount, converted by molar mass.

Assay type in all cases: functional
One assay deals with Klebsiella pneumoniae. Briefly: Tested for inhibition of visible growth of Klebsiella pneumoniae.
The subject of a further assay is Proteus mirabilis. Briefly: Tested for inhibition of visible growth of Proteus mirabilis.
The subject of a further assay is Enterobacter cloacae. Briefly: Tested for inhibition of visible growth of Enterobacter cloacae.
The subject of assay [1] is Staphylococcus aureus. Briefly: Tested for inhibition of visible growth of Staphylococcus aureus, benzyl-penicillin sensitive.
The next assay relates to Streptococcus pneumoniae. Briefly: Tested for inhibition of visible growth of Streptococcus pneumoniae.
A short description of assay [2]: Tested for inhibition of visible growth of Salmonella schottmuelleri.
For the next assay, the system named is Klebsiella aerogenes. Briefly: Tested for inhibition of visible growth of Enterobacter aerogenes.
The next assay concerns Escherichia coli. Briefly: Tested for inhibition of visible growth of Escherichia coli.
The test system of a further assay is Enterococcus faecalis. Description: Tested for inhibition of visible growth of Streptococcus faecalis.
Assay [3] has as its system Staphylococcus aureus. Description: Tested for inhibition of visible growth of Staphylococcus aureus.
The subject of another assay is Streptococcus pyogenes. Description: Tested for inhibition of visible growth of Streptococcus pyogenes.
The test system of the next assay is Pseudomonas aeruginosa. Description: Tested for inhibition of visible growth of Pseudomonas aeruginosa.

`CC1=C(C(=O)O)N2C(=O)C(NC(=O)C(N)c3ccc4c(c3)CCO4)C2SC1` (racemic): the MIC against Klebsiella pneumoniae was 50 µg/mL (≈ 128 µM); against Proteus mirabilis it was over 200 µg/mL; in the assay with Enterobacter cloacae, over 200 µg/mL; in the assay with Staphylococcus aureus [1], 1.6 µg/mL (≈ 4.11 µM); with Streptococcus pneumoniae, 3.1 µg/mL (≈ 7.96 µM); in assay [2], 50 µg/mL (≈ 128 µM). Also, the MIC in the assay on Klebsiella aerogenes is over 200 µg/mL; with Escherichia coli it was 100 µg/mL (≈ 257 µM); with Enterococcus faecalis, over 200 µg/mL; in the assay on Staphylococcus aureus [3], 3.1 µg/mL (≈ 7.96 µM); against Streptococcus pyogenes, 0.4 µg/mL (≈ 1.03 µM).
Regarding `CC(=O)OCC1=C(C(=O)O)N2C(=O)C(NC(=O)C(N)c3cccc4c3OCO4)C2SC1` (racemic), the MIC is 50 µg/mL (≈ 111 µM) in the assay on Klebsiella pneumoniae; 100 µg/mL (≈ 222 µM) with Proteus mirabilis; over 200 µg/mL with Enterobacter cloacae; 3.1 µg/mL (≈ 6.9 µM) in the assay on Staphylococcus aureus [1]; 0.2 µg/mL (≈ 0.445 µM) against Streptococcus pneumoniae; 25 µg/mL (≈ 55.6 µM) in assay [2]. Also, the MIC against Klebsiella aerogenes was over 200 µg/mL; with Escherichia coli, 100 µg/mL (≈ 222 µM); against Enterococcus faecalis, 200 µg/mL (≈ 445 µM); in the assay with Staphylococcus aureus [3] it was 3.1 µg/mL (≈ 6.9 µM); against Streptococcus pyogenes, 0.2 µg/mL (≈ 0.445 µM).
With `CC(=O)OCC1=C(C(=O)O)N2C(=O)C(NC(=O)C(N)c3ccc4c(c3)OCO4)C2SC1` (racemic), the MIC in the assay with Klebsiella pneumoniae was 25 µg/mL (≈ 55.6 µM); in the assay with Proteus mirabilis it was 100 µg/mL (≈ 222 µM); with Enterobacter cloacae, over 200 µg/mL; with Staphylococcus aureus [1], 3.1 µg/mL (≈ 6.9 µM); against Streptococcus pneumoniae, 0.4 µg/mL (≈ 0.89 µM); in assay [2], 12.5 µg/mL (≈ 27.8 µM). Besides, the MIC is over 200 µg/mL against Klebsiella aerogenes; 50 µg/mL (≈ 111 µM) in the assay with Escherichia coli; 200 µg/mL (≈ 445 µM) in the assay with Enterococcus faecalis; 6.2 µg/mL (≈ 13.8 µM) in the assay on Staphylococcus aureus [3]; 0.2 µg/mL (≈ 0.445 µM) in the assay with Streptococcus pyogenes.
As to `CC1(C)SC2C(NC(=O)C(C(=O)O)c3ccc4c(c3)OCO4)C(=O)N2C1C(=O)O` (racemic), the MIC against Klebsiella pneumoniae was 100 µg/mL (≈ 237 µM); with Proteus mirabilis it was 3.1 µg/mL (≈ 7.34 µM); in the assay on Enterobacter cloacae, 100 µg/mL (≈ 237 µM); in the assay on Staphylococcus aureus [1], 0.8 µg/mL (≈ 1.89 µM); in the assay with Streptococcus pneumoniae, 0.2 µg/mL (≈ 0.473 µM); in assay [2], 50 µg/mL (≈ 118 µM). In addition, the MIC is 50 µg/mL (≈ 118 µM) in the assay on Klebsiella aerogenes; 50 µg/mL (≈ 118 µM) in the assay on Escherichia coli; over 100 µg/mL in the assay with Enterococcus faecalis; 3.1 µg/mL (≈ 7.34 µM) against Pseudomonas aeruginosa; 12.5 µg/mL (≈ 29.6 µM) against Staphylococcus aureus [3]; 0.8 µg/mL (≈ 1.89 µM) against Streptococcus pyogenes.
Consider `CC(=O)OCC1=C(C(=O)O)N2C(=O)C(NC(=O)C(O)c3ccc4c(c3)OCO4)C2SC1` (racemic), for which the MIC is 25 µg/mL (≈ 55.5 µM) against Klebsiella pneumoniae; 50 µg/mL (≈ 111 µM) in the assay with Proteus mirabilis; over 200 µg/mL in the assay on Enterobacter cloacae; 0.8 µg/mL (≈ 1.78 µM) with Staphylococcus aureus [1]; 0.1 µg/mL (≈ 0.222 µM) in the assay with Streptococcus pneumoniae; 6.2 µg/mL (≈ 13.8 µM) in [2]. Further, the MIC in the assay with Klebsiella aerogenes was over 200 µg/mL; against Escherichia coli it was 25 µg/mL (≈ 55.5 µM); in the assay on Enterococcus faecalis, over 200 µg/mL; against Staphylococcus aureus [3], 3.1 µg/mL (≈ 6.88 µM); with Streptococcus pyogenes, 0.1 µg/mL (≈ 0.222 µM).
On to `CC(=O)OCC1=C(C(=O)O)N2C(=O)C(NC(=O)C(O)c3ccc4c(c3)CCO4)C2SC1` (racemic), for which the MIC with Klebsiella pneumoniae was 50 µg/mL (≈ 111 µM); in the assay on Proteus mirabilis it was 50 µg/mL (≈ 111 µM); in the assay with Enterobacter cloacae, over 200 µg/mL; against Staphylococcus aureus [1] it was 0.8 µg/mL (≈ 1.78 µM); with Streptococcus pneumoniae, 0.1 µg/mL (≈ 0.223 µM); in [2], 12.5 µg/mL (≈ 27.9 µM). Further, the MIC in the assay with Klebsiella aerogenes was over 200 µg/mL; against Escherichia coli it was 50 µg/mL (≈ 111 µM); in the assay on Enterococcus faecalis it was over 200 µg/mL; against Staphylococcus aureus [3], 3.1 µg/mL (≈ 6.91 µM); against Streptococcus pyogenes, 0.1 µg/mL (≈ 0.223 µM).
On to `CC1(C)S[C@@H]2[C@H](NC(=O)C(C(=O)O)c3ccccc3)C(=O)N2[C@H]1C(=O)O` (stereo not given in full) [CARBENICILLIN], for which the MIC with Klebsiella pneumoniae was 6.2 µg/mL (≈ 16.4 µM); in the assay with Proteus mirabilis, 0.8 µg/mL (≈ 2.11 µM); with Enterobacter cloacae, 6.2 µg/mL (≈ 16.4 µM); against Staphylococcus aureus [1], 0.4 µg/mL (≈ 1.06 µM); in the assay on Streptococcus pneumoniae it was 0.4 µg/mL (≈ 1.06 µM); in assay [2], 6.2 µg/mL (≈ 16.4 µM). Besides, the MIC was 6.2 µg/mL (≈ 16.4 µM) in the assay on Klebsiella aerogenes; 6.2 µg/mL (≈ 16.4 µM) in the assay with Escherichia coli; over 100 µg/mL with Enterococcus faecalis; 0.8 µg/mL (≈ 2.11 µM) in the assay on Pseudomonas aeruginosa; 25 µg/mL (≈ 66.1 µM) in the assay on Staphylococcus aureus [3]; 0.1 µg/mL (≈ 0.264 µM) with Streptococcus pyogenes.
As to `CC(=O)OCC1=C(C(=O)O)N2C(=O)[C@@H](NC(=O)Cc3cccs3)[C@H]2SC1` [CEPHALOTHIN], the MIC was 3.1 µg/mL (≈ 7.82 µM) in the assay with Klebsiella pneumoniae; 12.5 µg/mL (≈ 31.5 µM) in the assay with Proteus mirabilis; over 100 µg/mL in the assay on Enterobacter cloacae; 0.2 µg/mL (≈ 0.504 µM) against Staphylococcus aureus [1]; 0.1 µg/mL (≈ 0.252 µM) in the assay on Streptococcus pneumoniae; 3.1 µg/mL (≈ 7.82 µM) in assay [2]. The MIC with Klebsiella aerogenes was determined as 100 µg/mL (≈ 252 µM); in the assay with Escherichia coli it was 12.5 µg/mL (≈ 31.5 µM); in the assay with Enterococcus faecalis it was 100 µg/mL (≈ 252 µM); in the assay with Staphylococcus aureus [3], 0.8 µg/mL (≈ 2.02 µM); with Streptococcus pyogenes, 0.1 µg/mL (≈ 0.252 µM).
